We go through 45 molecules from PubChem BioAssay AID1508612.

SMILES strings stand for the structures.

A short description of this data set: passive permeability, PAMPA, ADME assay (AID 1508612). As to conditions: pH 7.4, 30.0 min, 50.0 µM.
One may read the Papp as a coefficient for how fast a substance crosses the barrier. Lower therefore signals slow passage. `O=C(Nc1nc(-c2ccccc2)cs1)c1ccncc1NS(=O)(=O)c1ccc(F)cc1Cl` had a Papp of more than 1000 ×10⁻⁶ cm/s.

`CSc1ccc(/C=C/c2nc3ccccc3n2S(=O)(=O)c2ccc(Br)cc2)cc1` returned a Papp of more than 1000 ×10⁻⁶ cm/s.

Molecule `COc1ccc(-n2c(C)c(C(C)=O)c3ccccc32)cc1` displayed a Papp of more than 1000 ×10⁻⁶ cm/s.

With `COc1ccc(-c2ccc3c(N4CCOC[C@H]4C)nc(N4CCOC[C@H]4C)nc3n2)cc1CO`, the Papp was 182 ×10⁻⁶ cm/s.

`CN(C)[C@@H]1CCN(c2cccc(Nc3nn4c(=O)c5ccccc5nc4s3)c2)C1` registered an apparent permeability (Papp) of 125 ×10⁻⁶ cm/s.

The molecule `O=C(c1ccc(C(=O)N2CCC(N3CCCC3)CC2)c(Nc2ccccc2)c1)N1CCC(N2CCCC2)CC1` had a Papp of 7.61 ×10⁻⁶ cm/s. This Papp lies about 16-fold lower than the previous one.

For the molecule `CC(=O)N1CCc2c(sc3c2c(=O)n(-c2ccccc2Cl)c(=O)n3Cc2cccc(C)c2)C1`, the Papp worked out at 338 ×10⁻⁶ cm/s. Against the preceding molecule, the Papp is about 44-fold higher.

As to `Cc1ccc(-c2cc(C(=O)Nc3cccc(S(=O)(=O)Nc4nccs4)c3)c3ccccc3n2)cc1C`, the Papp stood at 22.3 ×10⁻⁶ cm/s.

Turning to `N#Cc1cccc(-c2nccc(-n3ccnc3)n2)c1`, the Papp came out at 492 ×10⁻⁶ cm/s.

Molecule `CC(C)c1cc(C(=O)N2CC[C@@H](NC(=O)C3CC3)C2)n[nH]1` displayed a Papp of 1.3 ×10⁻⁶ cm/s.

For the molecule `O=C(Cc1ccc(Cl)c(Cl)c1)Nc1ccc(S(=O)(=O)Nc2cccc(O)c2)cc1`, the Papp was determined as 15.6 ×10⁻⁶ cm/s. This Papp lies about 12-fold higher than the previous one.

Turning to `CCC(CC)c1cc([C@H]2CN3CC[C@H]2C[C@@H]3CNC(=O)COc2ccccc2)nc(-c2ccncc2)n1`, the Papp is 790 ×10⁻⁶ cm/s.

For `COc1ccccc1C(=O)Nc1ccccc1C(=O)Nc1cccc(S(=O)(=O)C(F)(F)F)c1`, the Papp came to 7.6 ×10⁻⁶ cm/s.

Turning to `CCC[C@H](NC(=O)C(C#N)=Cc1cccc(Br)n1)c1ccccc1`, the Papp is more than 1000 ×10⁻⁶ cm/s.

With `Cc1cnc(-c2ccccc2C(F)F)nc1NCc1ccc(-n2ccnn2)cc1`, the Papp was more than 1000 ×10⁻⁶ cm/s.

Molecule `O=C(Nc1nc(-c2ccccc2)cs1)c1ccncc1NS(=O)(=O)c1cccnc1` gave a Papp of 50.8 ×10⁻⁶ cm/s.

For `CO[C@@H]1/C=C\O[C@@]2(C)Oc3c(C)c(O)c4c(c3C2=O)C(=N[C@H]2CC[C@H](O)O[C@@H]2C)C=C(NC(=O)/C(C)=C\C(=O)[C@@H]2C[C@@H]2[C@@H](O)[C@H](C)[C@@H](O)[C@H](C)[C@H](OC(C)=O)[C@@H]1C)C4=O`, the Papp was 2.33 ×10⁻⁶ cm/s.

For the molecule `c1ccc(Nc2cc(-c3ccoc3)ncn2)cc1`, the Papp is more than 1000 ×10⁻⁶ cm/s.

Turning to `Cc1ccc(-n2c(C)cc(-c3nnc4n3CCCCC4)c2C)cc1`, the Papp is more than 1000 ×10⁻⁶ cm/s.

For `CC(=O)c1cccc(-c2csc3ncnc(Sc4nnnn4C)c23)c1`, the Papp turned out to be 239 ×10⁻⁶ cm/s.

`Cc1ccc2nc(NC3=NC(c4[nH]ncc4Cl)C4=C(CCCC4=O)N3)oc2c1` (stereo not given) registered a Papp of 997 ×10⁻⁶ cm/s.

In turn, `O=C(O)c1c(Sc2ccccc2)c2cc(Cl)ccc2n1Cc1ccc(Cl)cc1` showed a Papp of 709 ×10⁻⁶ cm/s.

`Cc1ccc(C)n1-c1cccc(C(=O)O)c1` gave a Papp of 34.6 ×10⁻⁶ cm/s.

`Oc1cccc2nc3ccccc3nc12` had a Papp of 513 ×10⁻⁶ cm/s.

`O=C(NC1CC1)c1nc(-c2cccnc2)c2ccccn12` returned a Papp of 652 ×10⁻⁶ cm/s.

The molecule `Cc1ccc(N2CCC(CNc3nc(-c4ccccc4C(C)C)ncc3C)CC2)cn1` came in with a Papp of more than 1000 ×10⁻⁶ cm/s.

Molecule `NC(=O)C1CCN(c2nc(-c3cccs3)cs2)CC1` showed a Papp of 195 ×10⁻⁶ cm/s.

As for `CCOc1ccc(CCNC(=O)c2cc3ccccc3n2C)cc1OCC`, the Papp was more than 1000 ×10⁻⁶ cm/s.

`Oc1ccc(CN2CC(CNc3ccccc3)C3(C2)CN(c2ccccc2)C3)cc1` (stereo not given): the Papp was more than 1000 ×10⁻⁶ cm/s.

As to `CCOC(=O)Nc1cc(-c2ccc(C)c(NS(C)(=O)=O)c2)nn2c(C)nnc12`, the Papp was 278 ×10⁻⁶ cm/s.

Turning to `CNc1nc2c(s1)C(c1ccc(Cl)cc1)CC(=O)N2` (stereo not given), the Papp worked out at 308 ×10⁻⁶ cm/s.

The molecule `CCOc1ccc(CCNC(=O)c2ccc3ccccc3n2)cc1OCC` yielded an apparent permeability coefficient (Papp) of more than 1000 ×10⁻⁶ cm/s.

The molecule `Cc1ccnc(NC(=S)N2CCN(c3ccc(C(F)(F)F)cc3)CC2)c1` yielded a Papp of 587 ×10⁻⁶ cm/s.

In the case of `CC(C)Oc1cccc(-c2cnc(N3CCC(C(N)=O)CC3)s2)c1`, the Papp worked out at 810 ×10⁻⁶ cm/s. The Papp values of the last two molecules are within 1.5-fold of each other.

For the molecule `CCOc1ccc(N2CC(c3nc(-c4cc(OC)c(OC)c(OC)c4)no3)CC2=O)cc1` (stereo not given), the Papp is more than 1000 ×10⁻⁶ cm/s.

`Cn1cc(C2=C(c3cn(CCCSC(=N)N)c4ccccc34)C(=O)NC2=O)c2ccccc21` had a Papp of 11.1 ×10⁻⁶ cm/s.

In the case of `O=C(NC1CCCc2c1[nH]c1ccccc21)c1ccccc1` (stereo not given), the Papp amounted to 135 ×10⁻⁶ cm/s. Compared with the last molecule, the Papp is about 12-fold higher.

`CCOC(=O)CCNc1cc(N2CCc3ccccc3CC2)nc(-c2ccccn2)n1` yielded a Papp of more than 1000 ×10⁻⁶ cm/s.

`C=C1C(=O)O[C@@H]2[C@H]3O[C@]3(C)CC/C=C(\C)CC[C@@H]12` gave a Papp of more than 1000 ×10⁻⁶ cm/s.

For the molecule `Cc1nc(N2CCN(c3ccccn3)CC2)c2c(C)c(C(=O)Nc3ccc(F)cc3Cl)sc2n1`, the Papp was more than 1000 ×10⁻⁶ cm/s.

`Cc1cc(-c2nnc3n2CCCCC3)c(C)n1-c1cccc(C(F)(F)F)c1` returned a Papp of more than 1000 ×10⁻⁶ cm/s.

The molecule `CCc1ccccc1Nc1ncnc2c1cnn2-c1ccc(Cl)cc1` showed a Papp of 253 ×10⁻⁶ cm/s.

In turn, `COc1c(O)ccc2c1CN1CCc3cc4c(cc3[C@@H]1C2)OCO4` came in with a Papp of more than 1000 ×10⁻⁶ cm/s.

The molecule `NC(=O)C1CCN(c2ncc(-c3cccc(N4CCCC4)c3)s2)CC1` yielded a Papp of 95.6 ×10⁻⁶ cm/s.

For `COc1ccc(S(=O)(=O)N(CC(=O)Nc2ccc(C)cc2)c2ccc(C)cc2)cc1OC`, the Papp is more than 1000 ×10⁻⁶ cm/s.
